Measured values as given in patent publication US20120197004A1, “NOVEL ANTI-MICROBIAL PEPTIDOMIMETIC COMPOUNDS AND METHODS TO CALCULATE ANTI-MICROBIAL ACTIVITY” (priority 2006, published 2012).
Values after ≈ are worked out from the molar mass of the structure shown. Where a SMILES comes first, the peptide text is derived from it. [ ]: non-standard residue; d: D form. Oic = O=C(O)[C@@H]1C[C@@H]2CCCC[C@@H]2N1; Tic = O=C(O)[C@@H]1Cc2ccccc2CN1; Orn = NCCC[C@H](N)C(=O)O

Columns and labels:
mouse cutaneous injury = experiment: Mouse skin wound healing model; assay type: in vivo, CD-1 derived male mice; conditions: topical once daily for 10 days; test substances 100 μg/mouse, CGS-21680 10 μg/mouse
Experimental: In-vivo assays: Selected compounds were evaluated in an in-vivo mouse skin wound healing model by MDS Pharma Services using the following protocol. Groups of CD-1 derived male mice (n=5) weighting 24±2 g were used. Under hexobarbitol (90 mg/kg, IP) anesthesia, the shoulder and back region of each animal was shaved. A sharp punch (ID 12 mm) was applied to remove the skin including panniculus carnosus and adherent tissues. […] The percent closure of the wound (%) was calculated, and wound half-closure time (CT50) was analyzed by linear regression using Graph-Prism (Graph Software USA). One-way ANOVA followed by Dunnett's test was applied for comparison between the treated and its corresponding vehicle groups at each measurement time point. Differences are considered statistically significant at P<0.05.^41

[1] = test system: Salmonella typhimurium (ATCC 13311)
[2] = test system: Staphylococcus aureus Methicillin/Gentamicin/Tetracycline Resistant (ATCC 33592)
[3] = test system: Mycobacterium ranae (ATCC 110)
[4] = test system: Bacillus subtillis (ATCC 43223)
[5] = test system: Salmonella typhimurium strain LT2; experiment: In vivo challenge, gram-negative infection; conditions: Balb/c mice, intraperitoneal challenge 2.5×10^6; 5 mg/kg initial, then 2.5 mg/kg morning and afternoon

## CC(=O)NCC(=O)N[C@@H](Cc1ccccc1)C(=O)N1Cc2ccccc2C[C@H]1C(=O)N1[C@H](C(=O)NCC(=O)N[C@@H](CCCN)C(=O)N2Cc3ccccc3C[C@H]2C(=O)N2[C@H](C(=O)NCC(=O)N[C@@H](Cc3ccccc3)C(=O)N3Cc4ccccc4C[C@H]3C(=O)N3[C@H](C(=O)NCC(=O)N[C@@H](CCCN)C(=O)N4Cc5ccccc5C[C@H]4C(=O)N[C@@H](CCCN)C(=O)N[C@@H](CCCN)C(=O)N[C@@H](CCCN)C(=O)N[C@@H](CCCN)C(N)=O)C[C@@H]4CCCC[C@@H]43)C[C@@H]3CCCC[C@@H]32)C[C@@H]2CCCC[C@@H]21 [FKAB-1Gp, Ac-GF-Tic-Oic-G-Orn-Tic-Oic-GF-Tic-Oic-G-Orn-Tic-Orn-Orn-Orn-Orn-CONH2] (Ac-GF[Tic][Oic]G[Orn][Tic][Oic]GF[Tic][Oic]G[Orn][Tic][Orn][Orn][Orn][Orn]-NH2)
Mouse cutaneous injury
  CT50 (wound half-closure time): 5.7 days
  wound closure Day 3: 38.8%
  wound closure Day 5: 51.2%
  wound closure Day 7: 67.2%
  wound closure Day 9: 72.8%
  wound closure Day 11: 81.1%
[1]; -log(MIC)
  p(MIC) Salmonella typhimurium: 5.52
[1]; ATCC 13311
  MIC Salmonella typhimurium: 3 µM (≈ 7.07 µg/mL)
[2]; -log(MIC)
  p(MIC) Staphylococcus aureus ME/GM/TC resistant: 5.52
[2]; p(MIC) used in Staphylococcus aureus QSAR model
  Actual Bioactivity: 5.520
[3]
  Actual Bioactivity: 5.000
[3]; ATCC 110
  MIC Mycobacterium ranae: 10.00 µM (≈ 23.6 µg/mL)
  Minimum Inhibitory Concentration Mycobacterium ranae: 10 µM
[4]; -log(MIC)
  p(MIC) Bacillus Subtillis: 6.52
[4]; ATCC 43223
  MIC Bacillus Subtillis: 0.30 µM (≈ 0.707 µg/mL)
[5]
  morbidity (survival compared to control group): Accelerated morbidity
